Experimental data reported in US20250296953A1, “3,4-THIAZOLO-STEROIDS AND METHODS OF MAKING AND USING THE SAME” (Arkansas State University - Jonesboro, priority 2018, published 2025).
Like-named read-outs stand apart in the source and are kept apart here.

Assays:
[1] = system: 60 different human tumor cell lines; assay: cells
SF-539 = assay: NCI 60 one dose screen; format: cell-based, human; details: one dose; CNS Cancer; SF-539
glioblastoma (SF-295) = assay: NCI 60 five dose screen
[2] = system: 60 different human tumor cell lines; assay: NCI Development Therapeutics Program 60 cell line screen, one dose; format: cell-based

C[C@]12CCc3sc(NCCc4ccccc4)nc3C1=CC[C@@H]1[C@@H]2CC[C@]2(C)C(=O)CC[C@@H]12 [IIa.2, (1S,2R,13R,14S,18S)-2,18-dimethyl-7-(2-phenylethylamino)-6-thia-8-azapentacyclo [11.7.0.02,10.05,9.014,18]icosa-5(9),7,10-trien-17-one]
GI50 ([1]; 60 cell): 3.35 µM
CC50 ([1]; 60 cell, read-out: LC50): > 100 µM
GI50 ([1]; 786-0): 2.82 µM
CC50 ([1]; 786-0, read-out: LC50): > 100 µM
GI50 ([1]; A498): 4.43 µM
CC50 ([1]; A498, read-out: LC50): > 100 µM
GI50 ([1]; A549): 7 µM
CC50 ([1]; A549, read-out: LC50): > 100 µM
GI50 ([1]; ACHN): 1.96 µM
CC50 ([1]; ACHN, read-out: LC50): 7.19 µM
GI50 ([1]; BT-549): 2.42 µM
CC50 ([1]; BT-549, read-out: LC50): > 100 µM
GI50 ([1]; CAKI-1): 3.13 µM
CC50 ([1]; CAKI-1, read-out: LC50): > 100 µM
GI50 ([1]; CCRF-CEM): 2.63 µM
CC50 ([1]; CCRF-CEM, read-out: LC50): > 100 µM
GI50 ([1]; COLO 205): 3.03 µM
CC50 ([1]; COLO 205, read-out: LC50): > 100 µM
GI50 ([1]; DU-145): 3.64 µM
CC50 ([1]; DU-145, read-out: LC50): > 100 µM
GI50 ([1]; EKVX): 90.1 µM
CC50 ([1]; EKVX, read-out: LC50): > 100 µM
GI50 ([1]; HCC 2998): 8.19 µM
CC50 ([1]; HCC 2998, read-out: LC50): > 100 µM
GI50 ([1]; HCT-15): 1.57 µM
CC50 ([1]; HCT-15, read-out: LC50): 88.7 µM
GI50 ([1]; HCT-116): 2.87 µM
CC50 ([1]; HCT-116, read-out: LC50): > 100 µM
GI50 ([1]; HL-60): 2.93 µM
CC50 ([1]; HL-60, read-out: LC50): > 100 µM
GI50 ([1]; HOP-62): 8.52 µM
CC50 ([1]; HOP-62, read-out: LC50): > 100 µM
GI50 ([1]; HOP-92): 2.75 µM
CC50 ([1]; HOP-92, read-out: LC50): > 100 µM
GI50 ([1]; HT-29): 2.21 µM
CC50 ([1]; HT-29, read-out: LC50): > 100 µM
GI50 ([1]; Hs-578T): 2.85 µM
CC50 ([1]; Hs-578T, read-out: LC50): > 100 µM
GI50 ([1]; IGROV-1): 2.6 µM
CC50 ([1]; IGROV-1, read-out: LC50): 65.6 µM
GI50 ([1]; K562): 2.89 µM
CC50 ([1]; K562, read-out: LC50): > 100 µM
GI50 ([1]; KM12): 3.6 µM
CC50 ([1]; KM12, read-out: LC50): > 100 µM
GI50 ([1]; LOX IMVI): 1.7 µM
CC50 ([1]; LOX IMVI, read-out: LC50): 5.91 µM
GI50 ([1]; M14): 3.63 µM
CC50 ([1]; M14, read-out: LC50): > 100 µM
GI50 ([1]; MCF7): 2.68 µM
CC50 ([1]; MCF7, read-out: LC50): > 100 µM
GI50 ([1]; MDA-MB-231): 3.4 µM
CC50 ([1]; MDA-MB-231, read-out: LC50): > 100 µM
GI50 ([1]; MDA-MB-435): 3.01 µM
CC50 ([1]; MDA-MB-435, read-out: LC50): > 100 µM
GI50 ([1]; MDA-MB-468): 2.99 µM
CC50 ([1]; MDA-MB-468, read-out: LC50): > 100 µM
GI50 ([1]; MOLT-4): 2.58 µM
CC50 ([1]; MOLT-4, read-out: LC50): > 100 µM
GI50 ([1]; Malme-3M): 2.18 µM
CC50 ([1]; Malme-3M, read-out: LC50): > 100 µM
GI50 ([1]; NCI-H23): 5.03 µM
GI50 ([1]; NCI-H226): 2.42 µM
CC50 ([1]; NCI-H226, read-out: LC50): > 100 µM
GI50 ([1]; NCI-H322M): 96.9 µM
CC50 ([1]; NCI-H322M, read-out: LC50): > 100 µM
GI50 ([1]; NCI-H460): 4.47 µM
CC50 ([1]; NCI-H460, read-out: LC50): > 100 µM
GI50 ([1]; NCI-H522): 1.78 µM
CC50 ([1]; NCI-H522, read-out: LC50): 7.45 µM
GI50 ([1]; NCI/ADR-RES): 2.31 µM
CC50 ([1]; NCI/ADR-RES, read-out: LC50): > 100 µM
GI50 ([1]; OVCAR-3): 2.08 µM
CC50 ([1]; OVCAR-3, read-out: LC50): > 100 µM
GI50 ([1]; OVCAR-4): 3.93 µM
CC50 ([1]; OVCAR-4, read-out: LC50): > 100 µM
GI50 ([1]; OVCAR-5): 4.44 µM
CC50 ([1]; OVCAR-5, read-out: LC50): > 100 µM
GI50 ([1]; OVCAR-8): 2.77 µM
CC50 ([1]; OVCAR-8, read-out: LC50): > 100 µM
GI50 ([1]; RXF 393): 1.73 µM
CC50 ([1]; RXF 393, read-out: LC50): 30.9 µM
GI50 ([1]; SF-268): 4.62 µM
CC50 ([1]; SF-268, read-out: LC50): > 100 µM
GI50 ([1]; SK-MEL-2): 17 µM
CC50 ([1]; SK-MEL-2, read-out: LC50): > 100 µM
GI50 ([1]; SK-MEL-5): 4.57 µM
CC50 ([1]; SK-MEL-5, read-out: LC50): > 100 µM
GI50 ([1]; SK-MEL-28): 3.37 µM
CC50 ([1]; SK-MEL-28, read-out: LC50): > 100 µM
GI50 ([1]; SK-OV-3): > 100 µM
CC50 ([1]; SK-OV-3, read-out: LC50): > 100 µM
GI50 ([1]; SN12C): 2.89 µM
CC50 ([1]; SN12C, read-out: LC50): > 100 µM
GI50 ([1]; SNB-19): 97.5 µM
CC50 ([1]; SNB-19, read-out: LC50): > 100 µM
GI50 ([1]; SNB-75): 2.67 µM
CC50 ([1]; SNB-75, read-out: LC50): > 100 µM
GI50 ([1]; SW-620): 2.3 µM
CC50 ([1]; SW-620, read-out: LC50): > 100 µM
GI50 ([1]; T47D): 3.05 µM
CC50 ([1]; T47D, read-out: LC50): > 100 µM
GI50 ([1]; TK-10): 4.15 µM
CC50 ([1]; TK-10, read-out: LC50): > 100 µM
GI50 ([1]; U-251): 4.97 µM
CC50 ([1]; U-251, read-out: LC50): > 100 µM
GI50 ([1]; UACC-62): 2.67 µM
CC50 ([1]; UACC-62, read-out: LC50): > 100 µM
GI50 ([1]; UACC-257): 4.92 µM
CC50 ([1]; UACC-257, read-out: LC50): > 100 µM
GI50 ([1]; UO-31): 4.03 µM
CC50 ([1]; UO-31, read-out: LC50): > 100 µM
Growth Percent (SF-539): 64.79%
GI50 (glioblastoma (SF-295); Homo sapiens, SF-295): 18.9 µM
CC50 (glioblastoma (SF-295); Homo sapiens, SF-295, read-out: LC50): > 100 µM
TGI (glioblastoma (SF-295); SF-295 (CNS Cancer), five dose): >1.00E−4
Growth Percent ([2]; Breast Cancer, BT-549): 60.37%
Growth Percent ([2]; Breast Cancer, HS 578T): 75.51%
Growth Percent ([2]; Breast Cancer, MCF7): 20.41%
Growth Percent ([2]; Breast Cancer, MDA-MB-231/ATCC): 83.12%
Growth Percent ([2]; Breast Cancer, MDA-MB-468): 32.92%
Growth Percent ([2]; Breast Cancer, T-47D): 75.21%
Growth Percent ([2]; CNS Cancer, SF-268): 83.93%
Growth Percent ([2]; CNS Cancer, SNB-19): 80.20%
Growth Percent ([2]; CNS Cancer, SNB-75): 85.55%
Growth Percent ([2]; CNS Cancer, U251): 60.12%
Growth Percent ([2]; Colon Cancer, COLO 205): 90.61%
Growth Percent ([2]; Colon Cancer, HCC-2998): 105.58%
Growth Percent ([2]; Colon Cancer, HCT-116): 21.16%
Growth Percent ([2]; Colon Cancer, HT29): 34.29%
Growth Percent ([2]; Colon Cancer, KM12): 74.67%
Growth Percent ([2]; Colon Cancer, SW-620): 35.34%
Growth Percent ([2]; Leukemia, CCRF-CEM): 8.44%
Growth Percent ([2]; Leukemia, HL-60(TB)): 1.45%
Growth Percent ([2]; Leukemia, K-562): 5.14%
Growth Percent ([2]; Leukemia, MOLT-4): 4.71%
Growth Percent ([2]; Leukemia, RPMI-8226): −5.28%
Growth Percent ([2]; Leukemia, SR): 0.92%
Growth Percent ([2]; Melanoma, LOX IMVI): 70.22%
Growth Percent ([2]; Melanoma, M14): 85.36%
Growth Percent ([2]; Melanoma, MALME-3M): 73.32%
Growth Percent ([2]; Melanoma, MDA-MB-435): 58.12%
Growth Percent ([2]; Melanoma, SK-MEL-2): 92.09%
Growth Percent ([2]; Melanoma, SK-MEL-5): 65.96%
Growth Percent ([2]; Melanoma, SK-MEL-28): 83.31%
Growth Percent ([2]; Melanoma, UACC-62): 75.59%
Growth Percent ([2]; Melanoma, UACC-257): 87.36%
Growth Percent ([2]; Non-small Cell Lung Cancer, A549/ATCC): 87.76%
Growth Percent ([2]; Non-small Cell Lung Cancer, EKVX): 92.45%
Growth Percent ([2]; Non-small Cell Lung Cancer, HOP-62): 101.67%
Growth Percent ([2]; Non-small Cell Lung Cancer, HOP-92): 66.42%
Growth Percent ([2]; Non-small Cell Lung Cancer, NCI-H23): 66.61%
Growth Percent ([2]; Non-small Cell Lung Cancer, NCI-H226): 84.07%
Growth Percent ([2]; Non-small Cell Lung Cancer, NCI-H322M): 91.89%
Growth Percent ([2]; Non-small Cell Lung Cancer, NCI-H460): 72.80%
Growth Percent ([2]; Ovarian Cancer, IGROV1): 87.98%
Growth Percent ([2]; Ovarian Cancer, NCI/ADR-RES): 70.16%
Growth Percent ([2]; Ovarian Cancer, OVCAR-3): 6.41%
Growth Percent ([2]; Ovarian Cancer, OVCAR-4): 74.22%
Growth Percent ([2]; Ovarian Cancer, OVCAR-5): 100.34%
Growth Percent ([2]; Ovarian Cancer, OVCAR-8): 72.09%
Growth Percent ([2]; Ovarian Cancer, SK-OV-3): 111.53%
Growth Percent ([2]; Prostate Cancer, DU-145): 33.94%
Growth Percent ([2]; Prostate Cancer, PC-3): 38.82%
Growth Percent ([2]; Renal Cancer, 786-0): 4.36%
Growth Percent ([2]; Renal Cancer, A498): 86.92%
Growth Percent ([2]; Renal Cancer, ACHN): 73.78%
Growth Percent ([2]; Renal Cancer, CAKI-1): 73.48%
Growth Percent ([2]; Renal Cancer, RXF 393): 20.01%
Growth Percent ([2]; Renal Cancer, SN12C): 68.49%
Growth Percent ([2]; Renal Cancer, TK-10): 91.34%
Growth Percent ([2]; Renal Cancer, UO-31): 50.44%
